Legend:
suspension HEK293 (CL1) = test: Lentivirus production in suspension HEK293 (CL1) shake flasks, p24 ELISA; assay type: cell-based, human; settings: vs untreated control (100%)
Protocol: Transient transfection of HEK293 to produce Lentivirus was performed with pALDI-Lenti system (Aldevron). […]. The transfection mix consisted of the four-plasmid system, DMEM media and PEI as transfection reagent. The ratio between the used plasmids was 1:1:1:1 and the plasmid DNA PEI ration was 1:3.
The ELISA quantifies structural HIV1 p24 capsid protein amount in cell culture and supernatant samples. It is a quantitative sandwich ELISA method. For titering lentiviral expression HIV1 p24 ELISA Kit ab218268 was used. To discriminate between viral p24 produced by lentivirus and associated p24 produced by HEK293 cells Cell Biolabs Quick Titer™ Kit including LV-Origine/TR30021/Lot #134641F and the Cell Biolabs Reference Standard #310809 was used. The virus pulldown technology ensures detection of lentiviral associated p24 only.
The suspension HEK293 (CL1) experiments with a four-plasmid lentiviral transfection were performed in shake flasks with the same conditions as shown in Table 2. The statistical mean of the control condition was evaluated as 100%.

HEK293 cells [1] = test: rAAV yield in 10 L bioreactor fermentation of HEK293 cells, ddPCR; assay type: cell-based, human; settings: supernatant
From the text: (§1) To test the effect of IFN inhibitor on the rAAV yield in large-scale bioreactor fermentation of HEK293 cells, 10 L bioreactors have been used. The results are shown in FIG. 3A (determination by capsid particlerAAV8 ELISA) and FIG. 3B (determination by ddPCR).

HEK293 cells (CL1) [2] = test: rAAV8 yield in suspension HEK293 (CL1) shaker flasks, vector genome ddPCR
HEK293 cells (CL1) [3] = test: rAAV8 yield in suspension HEK293 (CL1) shaker flasks, capsid particle AAV8 ELISA
From the text: The commercially available enzyme-linked immunosorbent assay (ELISA; Progen AAV8 titration ELISA kit, cat. No. PRAAV8) uses a monoclonal antibody (ADK8) specific for a conformational epitope on assembled AAV8 capsids. This plate-immobilized antibody captures rAAV-8 particles from the specimen. Captured particles are then detected by the binding of biotinylated anti-AAV8 ADK8 since epitope targeted is repeatedly expressed on the assembled AAV8 capsid. Streptavidin peroxidase and a peroxidase substrate is then used for measuring bound anti-AAV8 and thus the concentration of AAV8 capsid. The color reaction was measured photometrically at 450 nm. The kit contains an rAAV2/8 particle preparation as calibration standard with a labelled rAAV8 particle concentration.

Adherent HEK293 cells [4] = test: rAAV yield in adherent HEK293 cells in T75 flasks, ddPCR; assay type: cell-based, human; settings: supernatant, vs control condition (100%)
Protocol: (§2) Adherent HEK293 cell line (Agilent Technologies CAT #240073, Lot #0006218516) was cultivated in T75 flasks in a total volume of 23 mL with DMEM media containing 2% FCS. The cultivation of the cells was performed in an incubator at +37° C. and 5% CO2. 1 mM Ruxolitnib stock solution was prepared by dissolving the solid white powder in DMSO according to the manufacturer's instructions before use and stored at −20° C. During the last passage before transfection Ruxolitinib was added to the cell culture at defined concentrations. Every condition was tested in duplicates. At transfection day a confluence range of 60 to 80% was achieved.
(§3) The statistical mean of the control condition was calculated as 100%.

HEK293 cells [5] = test: rAAV yield in 10 L bioreactor fermentation of HEK293 cells, rAAV8 capsid particle ELISA; assay type: cell-based, human; settings: supernatant, vs negative control without inhibitor
From the text: as §1

Adherent HEK293 cells [6] = test: rAAV yield in adherent HEK293 cells in T75 flasks, capsid particle AAV8 ELISA; assay type: cell-based, human; settings: supernatant, vs control condition
Protocol: as §2, §3

For N#CC[C@H](C1CCCC1)n1cc(-c2ncnc3[nH]ccc23)cn1 [Ruxolitinib, (3R)-3-cyclopentyl-3-[4-(7H-pyrrolo[2,3-d]pyrimidin-4-yl)pyrazol-1-yl]propanenitrile], the “lentiviral cp titer increase (p24 ELISA)” value (suspension HEK293 (CL1); 5 μM inhibitor) was 40%, the “lentiviral cp titer increase (p24 ELISA)” value (suspension HEK293 (CL1); 10 μM inhibitor) was 81.5% and the “improvement of rAAV yield by ddPCR” value (HEK293 cells [1]) was “approximately 1.3 fold”. For the same compound, the “rAAV yield in the cell suspension” value (HEK293 cells (CL1) [2]; 5 μM ruxolitinib, cell suspension) was “about 2×10^13 vg/L cell culture”, the “rAAV yield in the cell suspension” value (HEK293 cells (CL1) [2]; 10 μM ruxolitinib, cell suspension) was “about 2×10^13 vg/L cell culture” and the “increase of the vector genome (vg) in the cell suspension” value (HEK293 cells (CL1) [2]; 10 μM ruxolitinib, cell suspension, vs negative control without inhibitor) was “about 2 fold”. For the same compound, the “increase of the vector genome (vg) in the supernatant” value (HEK293 cells (CL1) [2]; 10 μM ruxolitinib, supernatant, vs negative control without inhibitor) was “about 2.5 fold”, the “effect on rAAV yield at higher concentrations” value (HEK293 cells (CL1) [3]; concentrations higher than 10 μM) was “reduction of the effect” and the “increase of rAAV yield as determined in cell suspension” value (HEK293 cells (CL1) [3]; optimal concentration 5 μM, vs yield in absence of inhibitor) was “about 3 fold”. For the same compound, the “vg yield increase (ddPCR)” value (Adherent HEK293 cells [4]; 1 μM inhibitor) was 48%, the “vg yield increase (ddPCR)” value (Adherent HEK293 cells [4]; 5 μM inhibitor) was 38.5% and the “vg yield increase (ddPCR)” value (Adherent HEK293 cells [4]; 10 μM inhibitor) was 31%. For the same compound, the “improvement of rAAV8 capsid particles by ELISA” value (HEK293 cells [5]) was “about 1.5 fold”, the “capsid particle yield increase (ELISA)” value (Adherent HEK293 cells [6]; 1 μM inhibitor) was 49% and the “capsid particle yield increase (ELISA)” value (Adherent HEK293 cells [6]; 5 μM inhibitor) was 66.5%. For the same compound, the “capsid particle titer increase (ELISA)” value (Adherent HEK293 cells [6]; 10 μM inhibitor) was 62%.

Reference: US20260242822A1, “METHODS AND KITS FOR THE IMPROVED FERMENTATIVE PRODUCTION OF A RECOMBINANT VIRUS” (priority 2022, published 2026)
